Compound in one assay: COc1ccc(C2=N[C@@H](c3ccc(Cl)cc3)[C@@H](c3ccc(Cl)cc3)N2C(=O)N2CCNC(=O)C2)c(OC(C)C)c1 [NUTLIN3]
The assay can be described thus: surviving fraction relative to DMSO-only wells; higher = less growth inhibition. The settings on record: exposure time: 5 days. The method, boiled down:
(§1)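 Inhibitors were tested at 0.5, 1, 5, 10, 50, 100, 500 and 1000 nM, applied continuously for five days beginning 24 hours after log-phase tumour cells were seeded at 250–500 per well in 384-well plates. CellTiter-Glo luminescence served as the viability measure, expressed as surviving fraction against the median of DMSO-only wells. Each line, screened three times, was kept only with replicate Pearson r >0.7 and median Z' >0.3.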

Compound in another assay: CS(=O)(=O)CCNCc1ccc(-c2ccc3ncnc(Nc4ccc(OCc5cccc(F)c5)c(Cl)c4)c3c2)o1 [LAPATINIB]
The description is as above. The settings on record: exposure time: 5 days. The method, boiled down: as §1

± gives the standard deviation of the averaged measurements.

Consider G292 BONE, for which the surviving fraction with NUTLIN3 (0.5 nM) amounted to 0.982 ± 0.028; with NUTLIN3 (1 nM) it was 0.955 ± 0.03; with NUTLIN3 (5 nM) it was 1.06 ± 0.047; with NUTLIN3 (10 nM), 1.05 ± 0.032; in the assay with NUTLIN3 (50 nM) it was 1.03 ± 0.044; with NUTLIN3 (100 nM), 0.989 ± 0.026. Besides, the surviving fraction came to 1.01 ± 0.045 in the assay with NUTLIN3 (500 nM); 0.979 ± 0.054 in the assay with NUTLIN3 (1000 nM); 0.973 ± 0.011 with LAPATINIB (0.5 nM); 1.02 ± 0.052 in the assay with LAPATINIB (1 nM); 1.03 ± 0.022 with LAPATINIB (5 nM); 1.03 ± 0.026 with LAPATINIB (10 nM). Further, the surviving fraction with LAPATINIB (50 nM) was found to be 1.02 ± 0.029; with LAPATINIB (100 nM), 0.999 ± 0.02; in the assay with LAPATINIB (500 nM) it was 0.967 ± 0.077; with LAPATINIB (1000 nM), 0.964 ± 0.015.
HCC38 BREAST: the surviving fraction with NUTLIN3 (0.5 nM) is 1.19 ± 0.29; with NUTLIN3 (1 nM) it was 1.23 ± 0.12; in the assay with NUTLIN3 (5 nM), 1.35 ± 0.062; with NUTLIN3 (10 nM), 1.29 ± 0.12; with NUTLIN3 (50 nM), 1.28 ± 0.14; with NUTLIN3 (100 nM), 1.28 ± 0.11. The surviving fraction with NUTLIN3 (500 nM) worked out at 1.22 ± 0.22; in the assay with NUTLIN3 (1000 nM), 1.26 ± 0.25; with LAPATINIB (0.5 nM), 1.03 ± 0.17; with LAPATINIB (1 nM), 0.933 ± 0.042; with LAPATINIB (5 nM) it was 1 ± 0.35; with LAPATINIB (10 nM), 1.09 ± 0.14. Besides, the surviving fraction with LAPATINIB (50 nM) is 0.873 ± 0.13; with LAPATINIB (100 nM), 0.776 ± 0.097; with LAPATINIB (500 nM) it was 0.757 ± 0.13; with LAPATINIB (1000 nM) it was 0.794 ± 0.19.
For HCC70 BREAST, the surviving fraction with NUTLIN3 (0.5 nM) is 1.03 ± 0.094; with NUTLIN3 (1 nM), 1.03 ± 0.043; with NUTLIN3 (5 nM), 1.02 ± 0.063; with NUTLIN3 (10 nM), 1.05 ± 0.087; with NUTLIN3 (50 nM), 1.07 ± 0.085; with NUTLIN3 (100 nM), 1.14 ± 0.055. Besides, the surviving fraction is 1.04 ± 0.073 with NUTLIN3 (500 nM); 1.07 ± 0.084 with NUTLIN3 (1000 nM); 1.05 ± 0.075 in the assay with LAPATINIB (0.5 nM); 1.1 ± 0.076 in the assay with LAPATINIB (1 nM); 1.16 ± 0.069 with LAPATINIB (5 nM); 1.15 ± 0.036 with LAPATINIB (10 nM). For the same test system, the surviving fraction in the assay with LAPATINIB (50 nM) amounted to 1.05 ± 0.07; in the assay with LAPATINIB (100 nM) it was 1.13 ± 0.044; in the assay with LAPATINIB (500 nM), 0.99 ± 0.047; with LAPATINIB (1000 nM), 0.941 ± 0.058.
Take HMLE3 BREAST: the surviving fraction came to 0.967 ± 0.059 with NUTLIN3 (0.5 nM); 0.985 ± 0.041 with NUTLIN3 (1 nM); 1.02 ± 0.028 with NUTLIN3 (5 nM); 0.996 ± 0.085 in the assay with NUTLIN3 (10 nM); 0.982 ± 0.046 in the assay with NUTLIN3 (50 nM); 0.995 ± 0.043 with NUTLIN3 (100 nM). Further, the surviving fraction with NUTLIN3 (500 nM) came out at 0.964 ± 0.025; with NUTLIN3 (1000 nM), 1.02 ± 0.024; with LAPATINIB (0.5 nM), 1.04 ± 0.1; with LAPATINIB (1 nM) it was 1.09 ± 0.074; with LAPATINIB (5 nM) it was 1.05 ± 0.065; with LAPATINIB (10 nM), 1.07 ± 0.098. For the same test system, the surviving fraction with LAPATINIB (50 nM) worked out at 1.04 ± 0.041; with LAPATINIB (100 nM) it was 1.14 ± 0.13; with LAPATINIB (500 nM), 0.992 ± 0.084; in the assay with LAPATINIB (1000 nM), 0.966 ± 0.046.
On to HMT3552 BREAST, for which the surviving fraction with NUTLIN3 (0.5 nM) was determined as 0.97; with NUTLIN3 (1 nM) it was 0.984; in the assay with NUTLIN3 (5 nM), 1; with NUTLIN3 (10 nM) it was 1; with NUTLIN3 (50 nM) it was 1.19; with NUTLIN3 (100 nM) it was 1.21. Also, the surviving fraction was determined as 1.12 in the assay with NUTLIN3 (500 nM); 1.14 with NUTLIN3 (1000 nM); 1.03 ± 0.033 in the assay with LAPATINIB (0.5 nM); 1.02 ± 0.073 in the assay with LAPATINIB (1 nM); 1.06 ± 0.026 with LAPATINIB (5 nM); 1.04 ± 0.075 in the assay with LAPATINIB (10 nM). For the same test system, the surviving fraction with LAPATINIB (50 nM) came to 1.02 ± 0.014; with LAPATINIB (100 nM) it was 1.05 ± 0.083; in the assay with LAPATINIB (500 nM), 0.861 ± 0.12; in the assay with LAPATINIB (1000 nM), 0.944 ± 0.074.
As to HS57T BREAST, the surviving fraction worked out at 0.965 ± 0.045 with NUTLIN3 (0.5 nM); 0.991 ± 0.018 with NUTLIN3 (1 nM); 1.01 ± 0.045 in the assay with NUTLIN3 (5 nM); 1.04 ± 0.046 with NUTLIN3 (10 nM); 1.01 ± 0.023 with NUTLIN3 (50 nM); 1.12 ± 0.033 with NUTLIN3 (100 nM). Moreover, the surviving fraction was 1.06 ± 0.027 with NUTLIN3 (500 nM); 1.04 ± 0.071 with NUTLIN3 (1000 nM); 0.975 ± 0.054 with LAPATINIB (0.5 nM); 1 ± 0.022 with LAPATINIB (1 nM); 1.07 ± 0.074 with LAPATINIB (5 nM); 1.03 ± 0.044 with LAPATINIB (50 nM). Further, the figures for the surviving fraction with LAPATINIB (100 nM), with LAPATINIB (500 nM) and with LAPATINIB (1000 nM) were 1.09 ± 0.044, 0.97 ± 0.04 and 0.933 ± 0.037, respectively.
With HS578T BREAST, the surviving fraction came to 1.11 ± 0.067 in the assay with NUTLIN3 (0.5 nM); 0.926 ± 0.069 with NUTLIN3 (1 nM); 0.883 ± 0.19 with NUTLIN3 (5 nM); 0.8973 ± 0.0049 in the assay with NUTLIN3 (10 nM); 0.92 ± 0.041 with NUTLIN3 (50 nM); 0.936 ± 0.072 with NUTLIN3 (100 nM). Moreover, the surviving fraction with NUTLIN3 (500 nM) is 0.913 ± 0.14; with NUTLIN3 (1000 nM), 0.921 ± 0.06; with LAPATINIB (0.5 nM), 1.19 ± 0.11; with LAPATINIB (1 nM), 1.03 ± 0.045; with LAPATINIB (5 nM), 1.11 ± 0.15; in the assay with LAPATINIB (10 nM), 0.871 ± 0.14. Moreover, the surviving fraction with LAPATINIB (50 nM) came to 1.04 ± 0.048; in the assay with LAPATINIB (100 nM), 1.08 ± 0.013; with LAPATINIB (500 nM), 0.941 ± 0.052; with LAPATINIB (1000 nM) it was 1.05 ± 0.15.

Values taken from the supplement of paper PMC6045584.
